What all share (experiment): NCI anticancer screen, dose series, 48 h
In assay [1] the test system is 786-0.
The subject of assay [2] is NCI-H226.
The subject of assay [3] is CCRF-CEM.
Assay [4] has as its system EKVX.
The test system of assay [5] is OVCAR-5.
For assay [6], the system named is LOX IMVI.
The subject of assay [7] is OVCAR-3.
For assay [8], the system named is HOP-62.
Assay [9] deals with DU-145.
Assay [10] concerns SK-MEL-2.
Assay [11] relates to SF-295.
Assay [12] relates to MOLT-4.
The subject of assay [13] is A549.
The test system of assay [14] is MDA-N.
Assay [15] relates to MDA-MB-435.
Assay [16] deals with UO-31.
For assay [17], the system named is NCI-H460.
The subject of assay [18] is NCI-H23.
The test system of assay [19] is COLO 205.
Assay [20] has as its system KM12.

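Exposure lasted 48 hours, with cells grown in 96-well plates and compounds tested at five concentrations. GI50: concentration for 50% inhibition of growth.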 Active and inactive are the calls of the source. Rule as the data show it: active = GI50 up to about 1.1 µM and inactive = higher.

In the case of `Clc1ccc(OCc2nnc3sc(-c4ccc(-c5ccc(Cl)cc5Cl)o4)nn23)c(Cl)c1`, the GI50 in [1] was 13.3 µM (inactive); in assay [2], 20.4 µM (inactive); in [3] it was 25.3 µM (inactive); in assay [4] it was 14.7 µM (inactive); in assay [5], 20 µM (inactive); in [6] it was 19.3 µM (inactive). Besides, the GI50 in [7] was 17.1 µM (inactive); in [8], 15.4 µM (inactive); in assay [9], 23.4 µM (inactive); in assay [10], 16.3 µM (inactive); in assay [11], 16.9 µM (inactive); in [12], 18.6 µM (inactive). Further, the GI50 in assay [13] is 21.6 µM (inactive); in assay [14], 24.2 µM (inactive); in assay [15], 32.8 µM (inactive); in assay [16], 25.8 µM (inactive); in [17], 20.4 µM (inactive); in [18], 21.6 µM (inactive). Besides, the GI50 in assay [19] is 26.1 µM (inactive); in assay [20], 32.6 µM (inactive).

Consider `Oc1ccc(C(=C(Br)c2ccccc2)c2ccc(O)cc2)cc1`, for which the GI50 in assay [1] is 9.77 µM (inactive); in assay [2], 15.8 µM (inactive); in assay [3], 7.52 µM (inactive); in [4], 11.5 µM (inactive); in assay [5], 17.3 µM (inactive); in assay [6] it was 4.08 µM (inactive). Moreover, the GI50 in assay [7] is 3.15 µM (inactive); in [8], 10.4 µM (inactive); in [9], 13.1 µM (inactive); in assay [10], 5.74 µM (inactive); in assay [11], 6.14 µM (inactive); in assay [12] it was 5.48 µM (inactive). In addition, the GI50 in assay [13] is 4.4 µM (inactive); in assay [14], 1.83 µM (inactive); in [15] it was 1.52 µM (inactive); in assay [16], 6.59 µM (inactive); in assay [17], 11.1 µM (inactive); in assay [18], 10.4 µM (inactive). The GI50 was 3.73 µM (inactive) in assay [19] and 3.61 µM (inactive) in [20].

Consider `CCC1(O)CC(O)c2c(O)c3c(c(O)c2C1C(=O)OC)C(=O)c1cccc(O)c1C3=O` (stereo not given), for which the GI50 is 2.75 µM (inactive) in assay [1]; 3.4 µM (inactive) in assay [2]; 1.53 µM (inactive) in assay [3]; 2.18 µM (inactive) in [4]; 4.86 µM (inactive) in assay [5]; 2.37 µM (inactive) in assay [6]. The GI50 was 2.05 µM (inactive) in assay [7]; 3.22 µM (inactive) in assay [8]; 5.42 µM (inactive) in assay [9]; 3.12 µM (inactive) in assay [10]; 2.66 µM (inactive) in [11]; 0.415 µM (active) in assay [12]. Also, the GI50 in [13] was 3.64 µM (inactive); in assay [14] it was 5.36 µM (inactive); in [15], 5.45 µM (inactive); in assay [16], 3.18 µM (inactive); in assay [17], 1.7 µM (inactive); in assay [18], 3.29 µM (inactive). Moreover, the GI50 was 2.21 µM (inactive) in assay [19] and 1.1 µM (active) in assay [20].

As for `CN(C)c1cccc(/C=C(\C#N)c2ccccc2)c1`, the GI50 in assay [1] was 2.21 µM (inactive); in [2] it was 2.55 µM (inactive); in assay [3] it was 0.794 µM (active); in assay [4], 2.14 µM (inactive); in [5], 3.72 µM (inactive); in assay [6], 0.406 µM (active). Further, the GI50 in assay [7] was 0.157 µM (active); in assay [8] it was 0.164 µM (active); in assay [9], 1.65 µM (inactive); in assay [10], 0.316 µM (active); in assay [11] it was 0.574 µM (active); in assay [12] it was 0.493 µM (active). Further, the GI50 was 2.61 µM (inactive) in assay [13]; 0.0451 µM (active) in assay [14]; 0.0478 µM (active) in assay [15]; 5.46 µM (inactive) in assay [16]; 0.527 µM (active) in assay [17]; 1.44 µM (inactive) in assay [18]. The figures for the GI50 in [19] and in assay [20] were 0.533 µM (active) and 0.1 µM (active), respectively.

Consider `CC(=O)[C@H]1CC[C@@H]2[C@]1(C)CC=C1[C@]23C=C[C@]2(C[C@@H](O)CC[C@]12C)C(C(=O)O)C3C(=O)O` (stereo not given in full), for which the GI50 in assay [1], in [2], in assay [3], in assay [4], in [5] and in assay [6] was > 100 µM (inactive) throughout. Further, the GI50 in [7], in assay [8], in assay [9], in assay [10], in assay [11] and in assay [12] was > 100 µM (inactive) each time. Further, the GI50 in assay [13], in assay [14], in [15], in assay [16], in assay [17] and in assay [18] was > 100 µM (inactive) in each case. Moreover, the GI50 in [19] and in assay [20] was > 100 µM (inactive) in each case.

For the molecule `CC1(C)C=CC(=O)C(O)C(C)(C)C1=O` (stereo not given), the GI50 in assay [1] was 96.2 µM (inactive); in [2], > 100 µM (inactive); in assay [3] it was 0.13 µM (active); in assay [4], > 100 µM (inactive); in assay [5], > 100 µM (inactive); in [6], 28.7 µM (inactive). For the same molecule, the GI50 in [7] was 29.1 µM (inactive); in assay [8], 53.6 µM (inactive); in [9] it was > 100 µM (inactive); in assay [10], > 100 µM (inactive); in assay [11], 75.3 µM (inactive); in assay [12] it was 7.05 µM (inactive). Further, the GI50 in assay [13] was > 100 µM (inactive); in [14], 52.8 µM (inactive); in assay [15], 53.3 µM (inactive); in assay [16], > 100 µM (inactive); in [17], 29.7 µM (inactive); in assay [18], 76.7 µM (inactive). Further, the GI50 in [19] was > 100 µM (inactive); in assay [20], 65.8 µM (inactive).

The record behind these values is ChEMBL document CHEMBL1201862, “PubChem BioAssay data set” (2004).
